Reference: patent US20260026499A1 (priority 2022, published 2026)
In brackets after ≈: the same amount, converted by molar mass.

System: tebuconazole-resistant Fusarium graminearum (TR)
Test: microbe, parasite or virus in culture
Assay type: cell-based
Conditions: for EC50: Fusarium graminearum, 72 h; for ATI: ZJS178 as standard reagent, TR strain

`CC(C)(C)C(O)(CCc1ccc(Cl)cc1)Cn1cncn1` (racemic) [Tebuconazole (B), (RS)-1-p-chlorophenyl-4,4-dimethyl-3-(1H-1,2,4-triazol-1-ylmethyl)pentan-3-ol, reference compound] showed an EC50 of 1.52 mg/L (≈ 4.95 µM) and an ATI of 2.34.
For `CCOC(=O)/C(C#N)=C(\N)c1ccc(N(C)CC)cc1` [ZJS178 (A), ethyl 2-cyano-3-amino-3-[4-(N-ethyl-N-methylamino)phenyl]acrylate], the EC50 was 0.0356 mg/L (≈ 0.13 µM) and the ATI was 100.00.
